Experimental data: PubChem BioAssay AID504627 (NMMLSC, 2011)
Active and inactive are the calls of the source.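 The calls were made as follows: active = polarization drop versus untreated control wells larger than 25 mP; inactive = the rest.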

What was measured:
Assay in all cases: BclXL, Bcl2, Bfl1, BclB binding displacement – biochemical, fluorescence polarization, powder compounds set 1, panel, dose response (AID 504627)
[1] = target: Apoptosis regulator Bcl-2 (Homo sapiens) (UniProt P10415); details: GST-Bcl-2 family protein, FITC-peptide fluorescence polarization, Bcl2; for polarization signal (mP), lower = inhibition: at 50 µM (top of the series)
Sequence of Apoptosis regulator Bcl-2 (Homo sapiens) (P10415 whole entry, looked up): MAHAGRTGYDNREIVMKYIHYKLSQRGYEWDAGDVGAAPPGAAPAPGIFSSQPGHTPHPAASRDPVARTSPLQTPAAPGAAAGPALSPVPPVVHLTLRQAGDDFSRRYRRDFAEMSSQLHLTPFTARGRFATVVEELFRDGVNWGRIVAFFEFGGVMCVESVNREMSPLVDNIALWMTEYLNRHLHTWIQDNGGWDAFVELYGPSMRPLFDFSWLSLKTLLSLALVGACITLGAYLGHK

[2] = target: Bcl-2-like protein 1 (Homo sapiens) (UniProt Q07817); details: GST-Bcl-2 family protein, FITC-peptide fluorescence polarization, BclXL; for polarization signal (mP), lower = inhibition: at 50 µM (top of the series)
Sequence of Bcl-2-like protein 1 (Homo sapiens) (Q07817 whole entry, looked up): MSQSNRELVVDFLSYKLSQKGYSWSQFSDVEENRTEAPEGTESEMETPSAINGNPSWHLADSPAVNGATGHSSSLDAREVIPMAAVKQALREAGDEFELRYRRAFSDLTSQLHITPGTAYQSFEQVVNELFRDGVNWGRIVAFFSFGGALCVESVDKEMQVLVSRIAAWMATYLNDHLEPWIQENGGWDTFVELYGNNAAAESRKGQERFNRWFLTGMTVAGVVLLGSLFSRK

[3] = target: Bcl-2-like protein 10 (Homo sapiens) (UniProt Q9HD36); details: GST-Bcl-2 family protein, FITC-peptide fluorescence polarization, BclB; for polarization signal (mP), lower = inhibition: at 50 µM (top of the series)
Sequence of Bcl-2-like protein 10 (Homo sapiens) (Q9HD36 whole entry, looked up): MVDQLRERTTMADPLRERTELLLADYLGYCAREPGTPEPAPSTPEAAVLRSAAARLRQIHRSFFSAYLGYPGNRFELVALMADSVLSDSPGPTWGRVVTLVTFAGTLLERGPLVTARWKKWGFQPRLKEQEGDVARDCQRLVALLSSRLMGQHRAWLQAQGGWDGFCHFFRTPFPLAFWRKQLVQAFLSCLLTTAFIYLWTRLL

[4] = target: Bcl-2-related protein A1 (Homo sapiens) (UniProt Q16548); details: GST-Bcl-2 family protein, FITC-peptide fluorescence polarization, Bfl1; for polarization signal (mP), lower = inhibition: at 50 µM (top of the series)
Sequence of Bcl-2-related protein A1 (Homo sapiens) (Q16548 whole entry, looked up): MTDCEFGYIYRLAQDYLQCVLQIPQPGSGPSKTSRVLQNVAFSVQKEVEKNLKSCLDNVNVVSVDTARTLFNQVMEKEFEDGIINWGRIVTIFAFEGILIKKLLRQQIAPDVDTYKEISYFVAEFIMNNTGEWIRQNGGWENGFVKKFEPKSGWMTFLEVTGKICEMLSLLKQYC

Oc1ccc(NCc2ccccc2OCc2ccccc2)cc1
polarization signal (mP), lower = inhibition [1]: inactive | polarization signal (mP), lower = inhibition [2]: inactive | polarization signal (mP), lower = inhibition [3]: inactive | polarization signal (mP), lower = inhibition [4]: inactive

O=C1C(Cl)=C(N2CCN(c3ccccc3[N+](=O)[O-])CC2)C(=O)c2ccccc21
IC50 [1]: 5.64 µM | IC50 [2]: 4.4 µM | IC50 [3]: 3.99 µM | IC50 [4]: 2.73 µM

O=C1NC(=O)C2(Cc3c(nc4ccccn4c3=O)N3CCCCCC32)C(=O)N1Cc1ccccc1 (stereo not given)
polarization signal (mP), lower = inhibition [1]: inactive | polarization signal (mP), lower = inhibition [2]: inactive | IC50 [3]: 1.16 µM | polarization signal (mP), lower = inhibition [4]: inactive

O=c1c2c(n3nnnc3n1Cc1ccccc1)-c1ccccc1CC21CCCC1
polarization signal (mP), lower = inhibition [1]: inactive | polarization signal (mP), lower = inhibition [2]: inactive | IC50 [3]: 1.13 µM | polarization signal (mP), lower = inhibition [4]: inactive

Cc1ccc(-c2cc(-c3ccc(F)cc3)c(C#N)c(N)n2)o1
polarization signal (mP), lower = inhibition [1]: inactive | polarization signal (mP), lower = inhibition [2]: inactive | polarization signal (mP), lower = inhibition [3]: inactive | polarization signal (mP), lower = inhibition [4]: inactive

Cc1ccc(C=NNC(=O)CSc2nnc(-c3ccc(Cl)cc3)n2-c2ccccc2)o1
polarization signal (mP), lower = inhibition [1]: inactive | polarization signal (mP), lower = inhibition [2]: inactive | IC50 [3]: 8.58 µM | polarization signal (mP), lower = inhibition [4]: inactive

COc1ccccc1-n1c(-c2ccccc2)c[nH]c1=S
polarization signal (mP), lower = inhibition [1]: inactive | polarization signal (mP), lower = inhibition [2]: inactive | polarization signal (mP), lower = inhibition [3]: inactive | polarization signal (mP), lower = inhibition [4]: inactive

Cc1cc(-c2cc(-c3ccc(Cl)cc3)nc(N)c2C#N)co1
polarization signal (mP), lower = inhibition [1]: inactive | polarization signal (mP), lower = inhibition [2]: inactive | polarization signal (mP), lower = inhibition [3]: inactive | polarization signal (mP), lower = inhibition [4]: inactive

CNC(CC(=O)c1ccc([N+](=O)[O-])cc1)C(Cl)(Cl)Cl (stereo not given)
polarization signal (mP), lower = inhibition [1]: inactive | polarization signal (mP), lower = inhibition [2]: inactive | polarization signal (mP), lower = inhibition [3]: inactive | polarization signal (mP), lower = inhibition [4]: inactive

Cc1ccc(-c2cc(-c3ccc(C)o3)nc(N)c2C#N)cc1
polarization signal (mP), lower = inhibition [1]: inactive | polarization signal (mP), lower = inhibition [2]: inactive | polarization signal (mP), lower = inhibition [3]: inactive | polarization signal (mP), lower = inhibition [4]: inactive
